Test results as given in patent US5147652A, “Autobiotics and their use in eliminating nonself cells in vivo” (priority 1990, dated 1992).

Columns and labels:
[1] = in vivo half life of C14-radiolabelled free and latentiated methylglyoxal; conditions: free; injected into mice
Procedure: With free alpha-ketoaldehydes, the half-life is about 30 minutes. […] Latentiation also protects host cells from the toxic effects of alpha-ketoaldehydes.

Sarcoma-180 cells = assay: Radiation enhancement in mice carrying ascitic Sarcoma-180 cells; assay type: in vivo
Description: Ten minutes after the injection the mice were irradiated with a gamma source (612 RAD equivalent of 400 R total body radiation; calculated lethaldose:LD-50/30 days). The treatment was repeated 3 times 4 days apart. […] One day after the last radiation, the animals were sacrificed, the ascitic fluid was collected and the malignant cells were counted.

Aspergillus niger = assay: Inhibition of proliferation of molds, disk assay; assay type: cell-based; conditions: 40 hrs
Procedure: (§1) (1) Stock solutions in 26% 2 popanediol:
(§2) (3) Assay: The microorganisms were grown in Saburand's dextrose agar (Scott) at 35 C for stock cultures. For assay the spores were plated on Mueller-Hilton agar plates (7cm dia). The test compounds were applied to the plates on sensi disks (6 mm dia, Whatmann #17 paper) in volumes of 10, 20, 30, 40 microliter made up to 40 plating volume of microliter with the solvent. The plates were incubated at room temperature and in the dark for 40 hrs. The diameter of the inhibition ring around the sensi disks were measured.

Penicillum notatum = assay: Inhibition of proliferation of molds, disk assay; assay type: cell-based; conditions: 40 hrs
Procedure: as §1, §2

Candida albicans = assay: Effect on proliferation of Candida albicans, disk on agar surface (A); assay type: cell-based; conditions: 24 hours (*)
Procedure: Stock solutions of the following test compounds were dissolved in physiological saline. However DOV was dissolved in water.
C. albicans isolated from clinical specimens were density grown in SubbaRow's broth at 35 C. A loopful of yeast suspension was evenly spread on the surface of Muller-Hilton agar plates (7cm diameter) with a sterile cotton applicator and incubated for 12 hours. The test compounds were placed on the surface of the sensidisks (Whatmann No. 17 paper, 6mm diameter) in a volume of 5, 10, 20, and 50 μliter of stock solutions and made up a final volume of 50 μliter with saline. The plates then were placed and kept at 37 C for 24 hours (*) and 48 hours (**) when the diameters of the inhibitory rings were recorded. Photographs were also taken of plates.

C. albicans = assay: Inhibition of C. albicans, yeast mixed in agar (B); assay type: cell-based; conditions: 30 μl test, 24 hrs incubation; mean of twenty assays
Procedure: Stock cultured C. albicans is used. The yeast isolated from clinical specimens was stock cultured (subcultured) on semisolid trypsoy agar plates. […] Thus, from the subculture(s), transfers were made every 48 hrs into SRB to keep the experimental strain available for assays. From the 24-48 hrs SRB cultures a loopful of turbid solutions was transferred and spread on either (a) trypsoy agar plates or (b) EBM agar plates which were fortified with horse and calf serum and incubated at 36 C for 24-48 hrs. […] Plate (a) was selected for growth inhibition assay(s) with ketoaldehydes.
One milliliter of SRB culture (24-48 hrs growth) was mixed with 10 ml trypsoy agar, warmed to 38 C and rapidly poured into sterile Petri dishes (7cm), spread evenly and allowed to solidify. The selected test compounds (in 30 μl total volume, as above) were placed in sensidisks (6mm dia, Whatman #17) on the infected agar surface. The plates were incubated for 24 hrs at 37 C. The extent of inhibition, clear zones around the sensi disks, were measured and recorded. In some cases contact photorecords were also made with the plates. (The dark zones on the photos are the inhibition (no growth) areas of C. albicans.
These assays were aimed at finding the variations of inhibition due to (i) the variable amount of yeast in (ii) a three dimensional area of the plates. Each result is the statistical mean of twenty assays on different batches of C. albicans.

[2] = tested on: blood coagulation (citrated human blood plasma); assay: Blood coagulation (i), ketoaldehyde kept 1-2 seconds before plasma added; assay type: biochemical; conditions: 1-2 seconds contact; for d % (clotting activity): control 22; for coagulation time: control 24; for clot: control hard
Procedure: (§3) 200 microliter thromboplastin (Ortho) was mixed with 10 microliter ketoaldehyde (KA) stock solution. Then 100 microliter citrated human blood plasma was added and the clot formation time (in seconds) was measured on a Fibrionometer. The effect of the ketoaldehyde on coagulation time was evaluated by comparing the clotting time of the KA treated plasma with the untreated control. The result (d%) was read from a special chart expressing the clotting activity.
(§4) All measurements were run in triplicates. The assay was run at 37 C (waterbath) in special tubes and all solutions were prewarmed.
(i) The plasminogen and ketoaldehyde were kept for
1-2 seconds before the blood plasma was added.

[3] = tested on: blood coagulation (plasma from a patient with prothrombin); assay: Blood coagulation (ii)(a), plasma from a patient with prothrombin; assay type: biochemical, human
Procedure: as §3, §4
(§5) (ii) The plasminogen and KA were incubated for
(§6) varying time before the blood plasma was added.
(a) With plasma from a patient with prothrombin
(clotting time 26 sec d % = 19. "Normal" (healthy)

[4] = tested on: blood coagulation (normal plasma); assay: Blood coagulation (ii)(b), normal plasma; assay type: biochemical, human
Procedure: as §3, §4, §5, §6
(b) with normal plasma: clotting time = 11. 7 sec

[5] = tested on: blood coagulation (whole blood); assay: Blood coagulation (c), trial assay with whole blood; assay type: biochemical; conditions: control 14.9 sec
Procedure: as §3, §4
(c) A trial assay where blood plasma was replaced

[6] = assay type: physicochemical
cell division = conditions: Stein and co-workers; cited from earlier work

CC(=O)C=O [MG, methylglyoxal]
half life [1]: about 30 minutes | P % (promotion) (Sarcoma-180 cells; MG alone, without radiation): 4.7% | TC % (Sarcoma-180 cells; MG alone, without radiation): 104.7% | TC % (Sarcoma-180 cells; RAD + MG, 120 mg/kg, 612 RAD, 3 times): 7.7% | diameter of inhibition ring (Aspergillus niger; 30 microliter): 7 | diameter of inhibition ring (Aspergillus niger; 40 microliter): 9 | diameter of inhibition ring (Penicillum notatum; 30 microliter): 8 | diameter of inhibition ring (Penicillum notatum; 40 microliter): 10 | inhibition diameters (Candida albicans; 20 μliter): 8 mm | inhibition diameters (Candida albicans; 50 μliter): 10 mm | inhibition diameters (C. albicans): 6.0 mm | d % (clotting activity) [2]: 20% | coagulation time [2]: 25 s | clot [2]: hard | clotting time ([3]; incubation time 30 seconds): 39 s | d% ([3]; incubation time 30 seconds): 15% | clotting time ([3]; incubation time 60 seconds): 32 s | d% ([3]; incubation time 60 seconds): 13% | clotting time ([3]; incubation time 130 seconds): 39 s | d% ([3]; incubation time 130 seconds): < 10% | clotting time ([3]; incubation time 190 seconds): 41 s | clotting time ([3]; incubation time 300 seconds): 91.8 s | clotting time ([4]; incubation time 5 seconds): 12.9 s | d% ([4]; incubation time 5 seconds): 96% | clotting time ([4]; incubation time 60 seconds): 14.9 s | d% ([4]; incubation time 60 seconds): 55% | clotting time ([4]; incubation time 129 seconds): 15.4 s | d% ([4]; incubation time 129 seconds): 53% | clotting time ([4]; incubation time 240 seconds): 19.0 s | d% ([4]; incubation time 240 seconds): 35% | clotting time ([4]; incubation time 360 seconds): 26.9 s | d% ([4]; incubation time 360 seconds): 26% | clotting time ([4]; incubation time 600 seconds): > 167.0 s | clotting time ([5]; incubation time 70): 16.5 s | clotting time ([5]; incubation time 150): 19.4 s | clotting time ([5]; incubation time 180): 20.0 s | clotting time ([5]; incubation time 240): 22.0 s | clotting time ([5]; incubation time 360): 24.0 s

O=CC(=O)c1ccccc1 [PhG, phenylglyoxal]
solubility in organic solvents ([6]; chloroform, methanol, ethanol): soluble in chloroform methanol and ethanol | solubility limit of stock solution ([6]; physiological saline stock): limit solubility | solubility in water ([6]; water): sparingly soluble in water | inhibition diameters (Candida albicans; 20 μliter): 5 mm | inhibition diameters (Candida albicans; 50 μliter): 8 mm | d % (clotting activity) [2]: 11% | coagulation time [2]: 35 s | clot [2]: hard | clotting time ([4]; incubation time 120 seconds): 19.5 s | d% ([4]; incubation time 120 seconds): 33% | effect of reaction with arginine-rich surface proteins on cells (cell division): cells that can not divide, and which become leaky and die
